Measurements: patent US20080044493A1, “Agent For Ameliorating The Maximum Passage Time Through Digestive Tract, Agent For Ameliorating Passage Time Through Digestive Tract And Preventive For Colon Cancer” (priority 2004, published 2008)

Experiments:
[1] = test system: healthy subject (1 person) not suffering from constipation; test: Test Example 1: transit time through the digestive tract by radio-opaque markers, with fecal weight and defecation frequency; format: in vivo, human; conditions: for Maximum Transit Time through Digestive Tract (average) / Transit Time through Digestive Tract (average): Standard Deviation in parentheses
From the text: The method proposed by Hinton et al. was invented to measure the time required from food ingestion to defecation, namely, transit time through the digestive tract. More specifically, a plurality of radio-opaque markers were taken with a meal, and the time required from food ingestion to defecation (ti) and the number of markers contained in the evacuated feces (xi) were inspected based on x-ray images of the collected feces, followed by calculation of transit time through the digestive tract using the following formula. Transit time through the digestive tract indicates an average time required for a plurality of radio-opaque markers taken simultaneously to be evacuated. [formula]
A test sample in a dose shown in Table 1, together with 15 markers, were administered per day with meals to a healthy subject (1 person) not suffering from constipation, and the markers in the feces of the subject were identified thereafter. Test samples were administered for 3 days, and during which the transit times through the digestive tract of 5 or 6 meals were measured. Transit time through the digestive tract calculated by the above formula after each meal and the time required for the last marker to be evacuated (maximum transit time through the digestive tract) were recorded. […] Statistical treatment was performed using t-tests. In addition to the marker identification, the fecal weight and defecation frequency were recorded, and daily average fecal weight and defecation frequency were calculated, and shown in Table 1.

feces = conditions: 3 g a day; statistically significant; cited from earlier work
5 subjects = conditions: liquid preparation 2.4 g per 100 ml, 70 ml (974 mg in terms of magnesium) a day; cited from earlier work

SMILES: OC[C@H]1O[C@@H](O[C@@H]2[C@@H](CO)OC(O)(CO)[C@H]2O)[C@H](O)[C@@H](O)[C@H]1O (mixture of isomers) [Lactulose]
- Average Defecation Frequency ([1]; Dose/Day 1 g): 1.8 times/day
- Average Fecal Weight ([1]; Dose/Day 1 g): 315 g/day
- Maximum Transit Time through Digestive Tract (average) ([1]; Dose/Day 1 g): 34.4 (9.4) hour
- Transit Time through Digestive Tract (average) ([1]; Dose/Day 1 g): 21.8 (3.1) hour
- Azoreductase activity in feces (feces): lowered azoreductase activity
- Nitroreductase activity in feces (feces): lowered nitroreductase activity
- Number of the Bifidobacterium in feces (feces): increased number of the Bifidobacterium
- Putrefactive metabolites in feces (feces): reduced putrefactive metabolites
- β-glucuronidase activity in feces (feces): lowered β-glucuronidase activity

SMILES: OC[C@H]1O[C@@H](O[C@H]2[C@H](O)[C@@H](O)[C@@H](O[C@]3(CO)O[C@H](CO)[C@@H](O)[C@@H]3O)O[C@@H]2CO)[C@H](O)[C@@H](O)[C@H]1O [Lactosucrose]
- Average Defecation Frequency ([1]; Dose/Day 1.5 g): 2.0 times/day
- Average Fecal Weight ([1]; Dose/Day 1.5 g): 267 g/day
- Maximum Transit Time through Digestive Tract (average) ([1]; Dose/Day 1.5 g): 31.3 (8.6) hour
- Transit Time through Digestive Tract (average) ([1]; Dose/Day 1.5 g): 19.7 (3.5) hour

SMILES: [O]=[Mg] [Magnesium Oxide]
- Transit time and maximum transit time through the digestive tract (in words) ([1]; 0.17 to 1.5 g a day, in comparison with no administration (control)): shortened transit time and maximum transit time through the digestive tract were observed
- Average fecal weight (in words) ([1]; 1.0 to 1.5 g intake a day): more than doubled
- Loose stools ([1]; 1.0 to 1.5 g intake a day): caused loose stools having high a moisture content
- Average Defecation Frequency ([1]; Dose/Day 0.17 g): 2.3 times/day
- Average Fecal Weight ([1]; Dose/Day 0.17 g): 274 g/day
- Maximum Transit Time through Digestive Tract (average) ([1]; Dose/Day 0.17 g): 38.1 (10.1) hour
- Transit Time through Digestive Tract (average) ([1]; Dose/Day 0.17 g): 20.6 (4.1) hour
- Average Defecation Frequency ([1]; Dose/Day 0.35 g): 2.0 times/day
- Average Fecal Weight ([1]; Dose/Day 0.35 g): 204 g/day
- Maximum Transit Time through Digestive Tract (average) ([1]; Dose/Day 0.35 g): 32.4 (7.6) hour
- Transit Time through Digestive Tract (average) ([1]; Dose/Day 0.35 g): 17.5 (3.1) hour
- Average Defecation Frequency ([1]; Dose/Day 0.50 g): 2.3 times/day
- Average Fecal Weight ([1]; Dose/Day 0.50 g): 313 g/day
- Maximum Transit Time through Digestive Tract (average) ([1]; Dose/Day 0.50 g): 35.6 (6.9) hour
- Transit Time through Digestive Tract (average) ([1]; Dose/Day 0.50 g): 21.6 (6.8) hour
- Average Defecation Frequency ([1]; Dose/Day 0.75 g): 2.3 times/day
- Average Fecal Weight ([1]; Dose/Day 0.75 g): 235 g/day
- Maximum Transit Time through Digestive Tract (average) ([1]; Dose/Day 0.75 g): 34.9 (7.2) hour
- Transit Time through Digestive Tract (average) ([1]; Dose/Day 0.75 g): 21.0 (4.3) hour
- Average Defecation Frequency ([1]; Dose/Day 1.0 g): 2.0 times/day
- Average Fecal Weight ([1]; Dose/Day 1.0 g): 414 g/day
- Maximum Transit Time through Digestive Tract (average) ([1]; Dose/Day 1.0 g): 37.1 (8.2) hour
- Transit Time through Digestive Tract (average) ([1]; Dose/Day 1.0 g): 22.9 (2.8) hour
- Average Defecation Frequency ([1]; Dose/Day 1.5 g): 2.3 times/day
- Average Fecal Weight ([1]; Dose/Day 1.5 g): 426 g/day
- Maximum Transit Time through Digestive Tract (average) ([1]; Dose/Day 1.5 g): 35.6 (6.4) hour
- Transit Time through Digestive Tract (average) ([1]; Dose/Day 1.5 g): 19.5 (1.9) hour
- Loose stools ([1]; up to 0.75 g intake a day): loose stools were not caused

SMILES: O=S(=O)([O-])[O-].[Mg+2] [Magnesium Sulfate]
- Average Defecation Frequency ([1]; Dose/Day 4.5 g): 2.3 times/day
- Average Fecal Weight ([1]; Dose/Day 4.5 g): 389 g/day
- Maximum Transit Time through Digestive Tract (average) ([1]; Dose/Day 4.5 g): 35.8 (10.1) hour
- Transit Time through Digestive Tract (average) ([1]; Dose/Day 4.5 g): 20.2 (2.4) hour
- Cathartic effects ([1]; compared with magnesium oxide): stronger cathartic effects than magnesium oxide

SMILES: OC[C@H]1O[C@H](OC[C@H]2O[C@H](O[C@]3(CO)O[C@H](CO)[C@@H](O)[C@@H]3O)[C@H](O)[C@@H](O)[C@@H]2O)[C@H](O)[C@@H](O)[C@H]1O [Raffinose]
- Average Defecation Frequency ([1]; Dose/Day 2 g): 2.3 times/day
- Average Fecal Weight ([1]; Dose/Day 2 g): 243 g/day
- Maximum Transit Time through Digestive Tract (average) ([1]; Dose/Day 2 g): 31.0 (11.5) hour
- Transit Time through Digestive Tract (average) ([1]; Dose/Day 2 g): 22.2 (2.5) hour

SMILES: [O]=[Mg] [activated magnesium oxide]
- Cathartic drug effect (5 subjects): its cathartic drug effect was shown
